Experimental data: ChEMBL document CHEMBL1128806, “Phosphodiesterase type IV (PDE IV) inhibition. Synthesis and evaluation of a series of 1,3,4-trisubstituted pyrrolidines” (Bioorg Med Chem Lett, 1995)

Experiments:
[1] = biological target: T1, 3',5'-cyclic-AMP phosphodiesterase 4B (Homo sapiens, UniProt Q07343); experiment: Ability to inhibit the catalytic activity of human Phosphodiesterase 4B (PDE IVB)
[2] = Inhibition of TNF-alpha secretion from LPS-stimulated human monocytes; format: functional
[3] = biological target: T1, 3',5'-cyclic-AMP phosphodiesterase 4B; experiment: Inhibition of rolipram binding to Phosphodiesterase 4B

T1 sequence (Q07343 whole entry): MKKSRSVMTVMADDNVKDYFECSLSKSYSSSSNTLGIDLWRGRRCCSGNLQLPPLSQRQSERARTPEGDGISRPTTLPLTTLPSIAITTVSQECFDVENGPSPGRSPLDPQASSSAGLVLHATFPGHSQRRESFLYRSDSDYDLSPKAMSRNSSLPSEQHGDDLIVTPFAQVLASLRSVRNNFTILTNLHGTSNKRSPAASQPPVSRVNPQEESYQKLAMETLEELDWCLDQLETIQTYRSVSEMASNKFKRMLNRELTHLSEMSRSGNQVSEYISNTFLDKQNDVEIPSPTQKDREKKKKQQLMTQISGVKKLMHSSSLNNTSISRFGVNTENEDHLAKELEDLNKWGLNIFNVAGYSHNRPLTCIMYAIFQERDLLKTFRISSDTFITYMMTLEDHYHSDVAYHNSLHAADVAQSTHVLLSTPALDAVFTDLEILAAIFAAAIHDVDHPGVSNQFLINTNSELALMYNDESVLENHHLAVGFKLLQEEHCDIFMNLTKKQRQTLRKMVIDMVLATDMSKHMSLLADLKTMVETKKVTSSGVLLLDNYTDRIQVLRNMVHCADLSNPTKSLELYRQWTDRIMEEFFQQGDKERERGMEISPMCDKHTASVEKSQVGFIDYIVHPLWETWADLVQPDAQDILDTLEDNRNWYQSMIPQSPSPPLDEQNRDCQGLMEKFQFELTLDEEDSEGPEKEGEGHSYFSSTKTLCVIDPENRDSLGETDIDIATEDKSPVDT

| SMILES | Ki [1] [nM] | IC50 [2] [nM] | IC50 [3] [nM] |
| --- | --- | --- | --- |
| COc1ccc([C@@H]2CN(C(=O)OC(C)(C)C)C[C@H]2NC(=O)OC(C)(C)C)cc1OC1CCCC1 | 1570 |  |  |
| COc1ccc([C@@H]2CN(C(=O)OCc3ccccc3)C[C@H]2NS(=O)(=O)c2ccccc2)cc1OC1CCCC1 | 4420 |  |  |
| CCC(=O)[C@@H]1CN(C(=O)OC)C[C@H]1c1ccc(OC)c(OC2CCCC2)c1 | 350 |  |  |
| COC(=O)[C@@H]1CN(C(N)=O)C[C@H]1c1ccc(OC)c(OC2CCCC2)c1 | 1480 |  |  |
| COC(=O)[C@@H]1CN(C(N)=S)C[C@H]1c1ccc(OC)c(OC2CCCC2)c1 | 380 |  |  |
| COC(=O)N1C[C@@H](NC(=O)OC(C)(C)C)[C@H](c2ccc(OC)c(OC3CCCC3)c2)C1 | 14400 |  |  |
| COC[C@@H]1CN(C(=O)OC(C)(C)C)C[C@H]1c1ccc(OC)c(OC2CCCC2)c1 | 80 |  |  |
| COC(=O)N1C[C@@H](C(=O)OC(C)C)[C@H](c2ccc(OC)c(OC3CCCC3)c2)C1 | 2290 |  |  |
| COC(=O)N1C[C@@H](C(=O)O)[C@H](c2ccc(OC)c(OC3CCCC3)c2)C1 | 1880 |  |  |
| COC(=O)N1C[C@@H](C(=O)OC(C)(C)C)[C@H](c2ccc(OC)c(OC3CCCC3)c2)C1 | 4630 |  |  |
| COC(=O)[C@@H]1CN(C(=O)OC(C)(C)C)C[C@H]1c1ccc(OC)c(OCCCOc2ccccc2)c1 | 240 |  |  |
| COC(=O)[C@@H]1CN(C(=O)OC(C)C)C[C@H]1c1ccc(OC)c(OC2CCCC2)c1 | 40 |  |  |
| COc1ccc([C@@H]2CN(C(=O)OC(C)(C)C)C[C@H]2C(N)=O)cc1OC1CCCC1 | 190 |  |  |
| COC(=O)[C@@H]1CN(C(=O)OCc2ccccc2)C[C@H]1c1ccc(OC)c(OC2CCCC2)c1 | 50 |  |  |
| CCOC(=O)[C@@H]1CN(C(=O)OC)C[C@H]1c1ccc(OC)c(OC2CCCC2)c1 | 550 |  |  |
| COc1ccc([C@@H]2CN(C(=O)OCc3ccccc3)C[C@H]2NC(=O)OC(C)(C)C)cc1OC1CCCC1 | 290 |  |  |
| COC(=O)N1C[C@@H](C(N)=O)[C@H](c2ccc(OC)c(OC3CCCC3)c2)C1 | 1570 |  |  |
| COC(=O)[C@@H]1CN(C(=O)OC)C[C@H]1c1ccc(OC)c(OC2CCCC2)c1 | 160 |  |  |
| COc1ccc(C2CNC(=O)C2)cc1OC1CCCC1 (configuration not stated) [ROLIPRAM] |  | 320 |  |
| COC(=O)N1C[C@@H]([N+](=O)[O-])[C@H](c2ccc(OC)c(OC3CCCC3)c2)C1 | 60 |  |  |
| COC(=O)N1C[C@@H](C(=O)c2ccccc2)[C@H](c2ccc(OC)c(OC3CCCC3)c2)C1 | 6030 |  |  |
| COC(=O)[C@@H]1CN(C(=O)OC(C)(C)C)C[C@H]1c1ccc(OC)c(OC2CCCC2)c1 | 30 |  |  |
| COC(=O)N1C[C@@H](C#N)[C@H](c2ccc(OC)c(OC3CCCC3)c2)C1 | 80 |  |  |
| COc1ccc([C@@H]2CN(C(=O)OC(C)(C)C)C[C@H]2CO)cc1OC1CCCC1 | 50 |  |  |
| COc1ccc([C@@H]2CN(C(=O)OCc3ccccc3)C[C@H]2NS(C)(=O)=O)cc1OC1CCCC1 | 1470 |  |  |
| COc1ccc([C@@H]2CN(C(=O)OC(C)(C)C)C[C@H]2C(=O)O)cc1OC1CCCC1 | 150 |  |  |
| COC(=O)[C@@H]1CN(C=O)C[C@H]1c1ccc(OC)c(OC2CCCC2)c1 | 810 |  |  |
| COC(=O)[C@@H]1CN(C(=O)OC(C)(C)C)C[C@H]1c1ccc(OC)c(OC)c1 | 1200 |  |  |
| CCC(=O)N1C[C@@H](C(=O)OC)[C@H](c2ccc(OC)c(OC3CCCC3)c2)C1 | 1130 |  |  |
| COC(=O)N1C[C@@H](C(C)=O)[C@H](c2ccc(OC)c(OC3CCCC3)c2)C1 | 30 | 457 | 320 |
